Results taken from PubChem BioAssay AID1963825 (Molecular Pharmacology Branch, DTP, NCI, 2024).
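Further: luminescence signal used as a surrogate for viable cells; spheroids exposed to drugs for seven days before readout.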

Test: Anticancer human tumor 997537-175-T-J1-PDC patient-derived colon adenocarcinoma cell line growth inhibition [POLQ]
Settings: 997537-175-T-J1-PDC complex spheroid viability, combination with POLQ inhibitors; second compound 0.316 µM; first compound 1 µM; hits give low values
Method in brief: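 PDC + HUVEC + MSC complex spheroids; POLQ inhibitors ± partner drugs; top conc. at/near clinical Cmax, else 10 microM (SN-38 1 microM), half-log dilutions; 37 degrees C, 5% CO2.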
Molecule `Nc1ccn(C2OC(CO)C(O)C2(F)F)c(=O)n1` (stereo unspecified) + Cc1cccc(N(C)C(=O)C2C(O)CCN2c2nc(C)cc(C(F)(F)F)c2C#N)c1 has a viability, T/C of 76.7%.
With `CC1COCCN1c1cc(-c2ccnn2C)c2ccnc(-c3ccn[nH]3)c2n1` (stereo unspecified) + COC1C(OC(N)=O)C(O)C(Oc2ccc3c(O)c(NC(=O)c4ccc(O)c(CC=C(C)C)c4)c(=O)oc3c2C)OC1(C)C the viability, T/C was 46.3%.
In the case of `CC1COCCN1c1cc(C2(S(C)(=N)=O)CC2)nc(-c2ccnc3[nH]ccc23)n1` (stereo unspecified) + Nc1ccc(C#CCN(C(=O)Cc2ncc(C(F)(F)F)cc2C(F)(F)F)c2ccc(F)cc2)nn1, the viability, T/C is reported as 79.2%.
In the case of `CCCS(=O)(=O)Nc1ccc(F)c(C(=O)c2c[nH]c3ncc(-c4ccc(Cl)cc4)cc23)c1F` + Cc1cccc(N(C)C(=O)C2C(O)CCN2c2nc(C)cc(C(F)(F)F)c2C#N)c1, the viability, T/C is reported as 75.4%.
Work on `CCc1cc2c(N3CCc4c(cc(Cn5ccnc5)cc4-c4cn(C)nc4C(F)(F)F)C3=O)ccnc2c(OC)n1` + Cc1cccc(N(C)C(=O)C2C(O)CCN2c2nc(C)cc(C(F)(F)F)c2C#N)c1 yielded a viability, T/C of 72%.

Same assay, conditions: 997537-175-T-J1-PDC complex spheroid viability, combination with POLQ inhibitors; second compound 0.316 µM; first compound 3.16 µM; hits give low values
In the case of `Nc1ccn(C2OC(CO)C(O)C2(F)F)c(=O)n1` (stereo unspecified) + Cc1cccc(N(C)C(=O)C2C(O)CCN2c2nc(C)cc(C(F)(F)F)c2C#N)c1, the viability, T/C is reported as 80.4%.
`CC1COCCN1c1cc(-c2ccnn2C)c2ccnc(-c3ccn[nH]3)c2n1` (stereo unspecified) + COC1C(OC(N)=O)C(O)C(Oc2ccc3c(O)c(NC(=O)c4ccc(O)c(CC=C(C)C)c4)c(=O)oc3c2C)OC1(C)C gave a viability, T/C of 33%.
With `CC1COCCN1c1cc(C2(S(C)(=N)=O)CC2)nc(-c2ccnc3[nH]ccc23)n1` (stereo unspecified) + Nc1ccc(C#CCN(C(=O)Cc2ncc(C(F)(F)F)cc2C(F)(F)F)c2ccc(F)cc2)nn1 the viability, T/C was 79.4%.
`CCCS(=O)(=O)Nc1ccc(F)c(C(=O)c2c[nH]c3ncc(-c4ccc(Cl)cc4)cc23)c1F` + Cc1cccc(N(C)C(=O)C2C(O)CCN2c2nc(C)cc(C(F)(F)F)c2C#N)c1 gave a viability, T/C of 80.8%.
With `CCc1cc2c(N3CCc4c(cc(Cn5ccnc5)cc4-c4cn(C)nc4C(F)(F)F)C3=O)ccnc2c(OC)n1` + Cc1cccc(N(C)C(=O)C2C(O)CCN2c2nc(C)cc(C(F)(F)F)c2C#N)c1 the viability, T/C was 78.5%.

Same assay, conditions: 997537-175-T-J1-PDC complex spheroid viability, combination with POLQ inhibitors; second compound 0.316 µM; first compound 10 µM; hits give low values
`Nc1ccn(C2OC(CO)C(O)C2(F)F)c(=O)n1` (stereo unspecified) + Cc1cccc(N(C)C(=O)C2C(O)CCN2c2nc(C)cc(C(F)(F)F)c2C#N)c1 showed a viability, T/C of 63.5%.
For `CC1COCCN1c1cc(-c2ccnn2C)c2ccnc(-c3ccn[nH]3)c2n1` (stereo unspecified) + COC1C(OC(N)=O)C(O)C(Oc2ccc3c(O)c(NC(=O)c4ccc(O)c(CC=C(C)C)c4)c(=O)oc3c2C)OC1(C)C, the viability, T/C was 66.8%.
In the case of `CC1COCCN1c1cc(C2(S(C)(=N)=O)CC2)nc(-c2ccnc3[nH]ccc23)n1` (stereo unspecified) + Nc1ccc(C#CCN(C(=O)Cc2ncc(C(F)(F)F)cc2C(F)(F)F)c2ccc(F)cc2)nn1, the viability, T/C is reported as 71.7%.
With `CCCS(=O)(=O)Nc1ccc(F)c(C(=O)c2c[nH]c3ncc(-c4ccc(Cl)cc4)cc23)c1F` + Cc1cccc(N(C)C(=O)C2C(O)CCN2c2nc(C)cc(C(F)(F)F)c2C#N)c1 the viability, T/C was 23.1%.
`CCc1cc2c(N3CCc4c(cc(Cn5ccnc5)cc4-c4cn(C)nc4C(F)(F)F)C3=O)ccnc2c(OC)n1` + Cc1cccc(N(C)C(=O)C2C(O)CCN2c2nc(C)cc(C(F)(F)F)c2C#N)c1 showed a viability, T/C of 65.5%.

Same assay, conditions: 997537-175-T-J1-PDC complex spheroid viability, combination with POLQ inhibitors; second compound 1 µM; first compound 0.0316 µM; hits give low values
In the case of `Nc1ccn(C2OC(CO)C(O)C2(F)F)c(=O)n1` (stereo unspecified) + Cc1cccc(N(C)C(=O)C2C(O)CCN2c2nc(C)cc(C(F)(F)F)c2C#N)c1, the viability, T/C is reported as 91.8%.
With `CC1COCCN1c1cc(-c2ccnn2C)c2ccnc(-c3ccn[nH]3)c2n1` (stereo unspecified) + COC1C(OC(N)=O)C(O)C(Oc2ccc3c(O)c(NC(=O)c4ccc(O)c(CC=C(C)C)c4)c(=O)oc3c2C)OC1(C)C the viability, T/C was 96.5%.
With `CC1COCCN1c1cc(C2(S(C)(=N)=O)CC2)nc(-c2ccnc3[nH]ccc23)n1` (stereo unspecified) + Nc1ccc(C#CCN(C(=O)Cc2ncc(C(F)(F)F)cc2C(F)(F)F)c2ccc(F)cc2)nn1 the viability, T/C was 97.8%.
For `CCCS(=O)(=O)Nc1ccc(F)c(C(=O)c2c[nH]c3ncc(-c4ccc(Cl)cc4)cc23)c1F` + Cc1cccc(N(C)C(=O)C2C(O)CCN2c2nc(C)cc(C(F)(F)F)c2C#N)c1, the viability, T/C was 102%.
Work on `CCc1cc2c(N3CCc4c(cc(Cn5ccnc5)cc4-c4cn(C)nc4C(F)(F)F)C3=O)ccnc2c(OC)n1` + Cc1cccc(N(C)C(=O)C2C(O)CCN2c2nc(C)cc(C(F)(F)F)c2C#N)c1 yielded a viability, T/C of 95.9%.

Same assay, conditions: 997537-175-T-J1-PDC complex spheroid viability, combination with POLQ inhibitors; second compound 1 µM; first compound 0.1 µM; hits give low values
For `Nc1ccn(C2OC(CO)C(O)C2(F)F)c(=O)n1` (stereo unspecified) + Cc1cccc(N(C)C(=O)C2C(O)CCN2c2nc(C)cc(C(F)(F)F)c2C#N)c1, the viability, T/C was 102%.
For `CC1COCCN1c1cc(-c2ccnn2C)c2ccnc(-c3ccn[nH]3)c2n1` (stereo unspecified) + COC1C(OC(N)=O)C(O)C(Oc2ccc3c(O)c(NC(=O)c4ccc(O)c(CC=C(C)C)c4)c(=O)oc3c2C)OC1(C)C, the viability, T/C was 75%.
Molecule `CC1COCCN1c1cc(C2(S(C)(=N)=O)CC2)nc(-c2ccnc3[nH]ccc23)n1` (stereo unspecified) + Nc1ccc(C#CCN(C(=O)Cc2ncc(C(F)(F)F)cc2C(F)(F)F)c2ccc(F)cc2)nn1 has a viability, T/C of 108%.
`CCCS(=O)(=O)Nc1ccc(F)c(C(=O)c2c[nH]c3ncc(-c4ccc(Cl)cc4)cc23)c1F` + Cc1cccc(N(C)C(=O)C2C(O)CCN2c2nc(C)cc(C(F)(F)F)c2C#N)c1 showed a viability, T/C of 87.4%.
`CCc1cc2c(N3CCc4c(cc(Cn5ccnc5)cc4-c4cn(C)nc4C(F)(F)F)C3=O)ccnc2c(OC)n1` + Cc1cccc(N(C)C(=O)C2C(O)CCN2c2nc(C)cc(C(F)(F)F)c2C#N)c1 showed a viability, T/C of 104%.

Same assay, conditions: 997537-175-T-J1-PDC complex spheroid viability, combination with POLQ inhibitors; second compound 1 µM; first compound 0.316 µM; hits give low values
In the case of `Nc1ccn(C2OC(CO)C(O)C2(F)F)c(=O)n1` (stereo unspecified) + Cc1cccc(N(C)C(=O)C2C(O)CCN2c2nc(C)cc(C(F)(F)F)c2C#N)c1, the viability, T/C is reported as 73.7%.
